The source of these data is patent US20120309699A1, “COMPOUNDS HAVING ANTI-INFLAMMATORY ACTIVITY” (Consejo Superior de Investigaciones Cientificas (CSIC), priority 2009, published 2012).

Entries after “also recorded” stand apart in the source; their conditions may differ.

In one data set the test system is C57BL/6 mice. The data set can be described thus: DSS (sodium dextran sulfate) model for intestinal inflammation: colon length, weight, DAI, appearance, colonic architecture. The format is in vivo. The following applies: after 1% DSS for 8 days; HED 10 mg. The protocol: (§1) A model for intestinal inflammation based on the administration of DSS (sodium dextran sulfate) to C57BL/6 mice was used. At the present time there is no consensus about which overall is the best model for experimental colitis. The DSS model has been widely used because it has clinical, morphological and analytical characteristics which up to a point are similar to those specific to patients with ulcerative colitis or Crohn's disease.
(§2) The in vivo inflammation test was carried out using duplicates separated by a number of months. In each test each group of animals (n=8) was fed a standard diet supplemented with 2.3 mg/day/kg (animal weight) of each of the compounds, depending upon the group. This dose assumes the ingestion of 0.05 mg/day (50 μg/day) per mouse (having a mean weight of 22 grams). This dose extrapolated to a human being is equivalent to 10 mg in an adult weighing 70 kg; using the formula HED (human equivalent dose)=animal dose in mg/kg×(animal weight kg/human weight in kg)^0.33.
(§3) In each test the mice were fed for 3 weeks during which 1% DSS was included in their drink. The DSS was maintained for 8 days (and the same food as from the start). Then the DSS was withdrawn and the animals were allowed to recover for another 6 days (again with the same food).
Groups included in the investigation: control (standard food), control-DSS, DSS-resveratrol (RES), DSS-piceid (PIC), DSS-resveratrol-diglucoside (DIGLUC), DSS-piceid-butyrate (BUT), DSS-piceid-octanoate (OCT).
• Monitoring of weight, food and drink ingestion. The mice in all groups were individually monitored, with weight, quantity of food ingested and water drunk each day being monitored throughout the experimental test. • Blood and water in feces. The water content of feces, as an indication of diarrhea, was evaluated using the difference in weight following evaporation in a stove. Blood was measured using reactive strips based on the guaiacol-peroxidase reaction (HealthCare Diagnosis Inc.). The samples were diluted 1:50 in saline solution and applied to the reactive strips. After 60 sec the color was compared with the template provided by the manufacturer. The reaction was measured using a scale from 0 (negative result) to 4 (most intense color change). • Length of colon. After sacrifice the colon was obtained from each mouse, extended and measured. Samples of the colonic mucosa for various tests mentioned below were obtained by scraping. • Myeloperoxidase activity in colonic mucosa. This was evaluated by spectrophotometry at 460 nm using O-dianisidine reagent and hydrogen peroxide. The change in absorbance at 460 nm was monitored over 10 minutes in a V-630 spectrophotometer (Jasco, Tokyo, Japan). MPO activity was expressed as mU of activity/mg of fresh tissue, comparing the increase in absorbance with a standard straight line obtained using leukocyte myeloperoxidase (Sigma). • Prostaglandins in colonic mucosa. Levels of PGE2 were measured in colonic mucosa homogenates using an immunoenzyme method using a Cayman Chem. kit (USA). • “Antibody array”. The “antibody array” kit from RayBiotech (“RayBio Mouse Inflammation Antibody Array 1”) was used to determine cytokines in colonic tissue samples. The “RayBio Mouse inflammation antibody arrays” are a fast and accurate system for determining the expression profile of multiple cytokines (in this case 40) in a very sensitive way. The sensitivity is 100 times greater than that of the ELISA method. The measurement was made in duplicate following the manufacturer's instructions. Membranes were blocked with blocking buffer and then incubated with 300 μg of protein for 2 hours. Finally the membranes were incubated with a cocktail of antibodies conjugated with biotin and then radish peroxidase marked with streptavidin. The signal was detected by chemoluminescence. Images were captured using a CCD camera fitted to a Biorad Chemidoc XRS imaging station. Signal intensities (densitometry) were analyzed using ScanAlyze software. […]

The test system of the next data set is haptoglobin. Briefly: Systemic inflammation marker haptoglobin (DSS model). The format is in vivo, mice. The following applies: vs DSS group; HED 10 mg. Here is the method:
as §1, §2, §3
(§4) • Monitoring of weight, food and drink ingestion. The mice in all groups were individually monitored, with weight, quantity of food ingested and water drunk each day being monitored throughout the experimental test. • Blood and water in feces. The water content of feces, as an indication of diarrhea, was evaluated using the difference in weight following evaporation in a stove. Blood was measured using reactive strips based on the guaiacol-peroxidase reaction (HealthCare Diagnosis Inc.). […] The reaction was measured using a scale from 0 (negative result) to 4 (most intense color change). • Length of colon. After sacrifice the colon was obtained from each mouse, extended and measured. […] This was evaluated by spectrophotometry at 460 nm using O-dianisidine reagent and hydrogen peroxide. The change in absorbance at 460 nm was monitored over 10 minutes in a V-630 spectrophotometer (Jasco, Tokyo, Japan). MPO activity was expressed as mU of activity/mg of fresh tissue, comparing the increase in absorbance with a standard straight line obtained using leukocyte myeloperoxidase (Sigma). • Prostaglandins in colonic mucosa. Levels of PGE2 were measured in colonic mucosa homogenates using an immunoenzyme method using a Cayman Chem. kit (USA). • “Antibody array”. […] The signal was detected by chemoluminescence. […] Signal intensities (densitometry) were analyzed using ScanAlyze software. […] The changes in cytokine levels were expressed as mean±SD in arbitrary density units. […]

The test system of another data set is fibrinogen. The data set can be described thus: Systemic inflammation marker fibrinogen (DSS model). The format is in vivo, mice. The note with it: vs DSS group; HED 10 mg. The protocol:
as §1, §2, §3, §4

The subject of a further data set is bifidobacteria. The data set can be described thus: Microbiota counts in feces: bifidobacteria. Format: in vivo, mice. The following applies: HED 10 mg. Here is the method: as §1, §2, §3, §4
Another data set deals with enterobacteria. The data set can be described thus: Microbiota counts in feces: enterobacteria. The format is in vivo, mice. The following applies: after administration of DSS; HED 10 mg. The protocol:
as §1
(§5) The in vivo inflammation test was carried out using duplicates separated by a number of months. In each test each group of animals (n=8) was fed a standard diet supplemented with 2.3 mg/day/kg (animal weight) of each of the compounds, depending upon the group. This dose assumes the ingestion of 0.05 mg/day (50 μg/day) per mouse (having a mean weight of 22 grams). This dose extrapolated to a human being is equivalent to 10 mg in an adult weighing 70 kg; using the formula HED (human equivalent dose)=animal dose in mg/kg×(animal weight kg/human weight in kg)^0.33. […]
(§6) • Monitoring of weight, food and drink ingestion. The mice in all groups were individually monitored, with weight, quantity of food ingested and water drunk each day being monitored throughout the experimental test. • Blood and water in feces. The water content of feces, as an indication of diarrhea, was evaluated using the difference in weight following evaporation in a stove. Blood was measured using reactive strips based on the guaiacol-peroxidase reaction (HealthCare Diagnosis Inc.). […] The reaction was measured using a scale from 0 (negative result) to 4 (most intense color change). • Length of colon. After sacrifice the colon was obtained from each mouse, extended and measured. […] This was evaluated by spectrophotometry at 460 nm using O-dianisidine reagent and hydrogen peroxide. The change in absorbance at 460 nm was monitored over 10 minutes in a V-630 spectrophotometer (Jasco, Tokyo, Japan). […] Levels of PGE2 were measured in colonic mucosa homogenates using an immunoenzyme method using a Cayman Chem. kit (USA). • “Antibody array”. […] The signal was detected by chemoluminescence. […]

In the next data set the test system is E. coli. The data set can be described thus: Microbiota counts in feces: E. coli. Format: in vivo, mice. The note with it: after administration of DSS; HED 10 mg. The protocol:
as §1, §5, §6

Data set [1] deals with pathogenic bacteria (E. coli O157, Salmonella and Listeria monocytogenes Scott A). Briefly: Adhesion of pathogenic bacteria to Caco-2 cell cultures. The note with it: Caco-2, 25 μM/well, vs positive control C+. The format is cell-based, human. Here is the method:
(§7) We used two cell models for colon cancer to evaluate the anti-adhesion capacity of compounds derived from resveratrol against pathogenic bacteria in food: Caco-2 (a model frequently used to measure the adhesion of microorganisms) and HT-29 (a model frequently used to measure immune response to infections by enteropathogens). Caco-2 and HT-29 cells were grown in EMEM and DMEM respectively, for which 24 well plates were used at 37° C., 5% CO2, 95% air until a single layer of confluent epithelium formed (cell concentration per well 2×10^5 and 6×10^5 respectively). Pathogenic bacteria (E. coli O157, Salmonella and Listeria monocytogenes Scott A) were placed in contact with the various compounds derived from resveratrol for 1 hour and subsequently the bacteria together with the different compounds in a concentration of 25 μM/well were inoculated on the cell cultures, incubating the plates for 2 hours at 37° C., 5% CO2, 95% air. The plates were then washed 3 times with 1 ml of sterile PBS and 1 ml of distilled water with 20% of glycerol was added, and they were frozen at −70° C. to lyse the epithelial cells. […] Concentrations of the various derivatives tested were detected in the digestive tracts of experimental animals and therefore the test lay within the range of physiologically achievable concentrations.

Data set [2] has the same test system. The data set can be described thus: Adhesion of pathogenic bacteria to HT-29 cell cultures. Format: cell-based, human. The following applies: HT-29, 25 μM/well, vs positive control C+. The protocol: as §7
The subject of a further data set is COX-2. The following applies: see ES2266271; cited from earlier work.
For the next data set, the target named is COX-1 (Homo sapiens, UniProt P23219). The note with it: cited from earlier work.
COX-1, sequence (P23219 24-599): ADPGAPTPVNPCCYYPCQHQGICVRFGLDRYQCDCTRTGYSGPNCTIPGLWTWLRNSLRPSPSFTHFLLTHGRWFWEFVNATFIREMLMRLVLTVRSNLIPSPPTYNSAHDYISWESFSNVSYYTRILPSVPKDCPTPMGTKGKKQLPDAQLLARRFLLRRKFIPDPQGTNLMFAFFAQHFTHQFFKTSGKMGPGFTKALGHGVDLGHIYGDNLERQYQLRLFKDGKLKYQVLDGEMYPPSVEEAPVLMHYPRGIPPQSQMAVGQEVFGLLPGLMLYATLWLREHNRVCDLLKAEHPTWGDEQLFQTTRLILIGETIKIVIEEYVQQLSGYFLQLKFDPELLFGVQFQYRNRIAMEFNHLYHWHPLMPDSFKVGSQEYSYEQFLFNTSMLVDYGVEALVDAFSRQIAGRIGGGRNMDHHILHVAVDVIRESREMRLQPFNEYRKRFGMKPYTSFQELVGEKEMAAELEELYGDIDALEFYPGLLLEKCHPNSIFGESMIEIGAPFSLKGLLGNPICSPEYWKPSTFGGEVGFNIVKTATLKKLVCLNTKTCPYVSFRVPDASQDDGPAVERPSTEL
Data set [3] is described as follows: Time of arrival and concentration of resveratrol in the colon of healthy mice. The note with it: gastric probang, 84 mg/kg resveratrol.

With `OC[C@H]1O[C@@H](Oc2cc(/C=C/c3ccc(O)cc3)cc(O[C@@H]3O[C@H](CO)[C@@H](O)[C@H](O)[C@H]3O)c2)[C@H](O)[C@@H](O)[C@@H]1O` [DIGLUC, trans-resveratrol-3,5-di-O-β-D-glucopyranoside], the “General appearance of the mice” value in the data set with C57BL/6 mice was “OCT (D)≈BUT (C)>>RES≈DIGLUC≈PIC (B)>>control-DSS (A)”. The Blood haptoglobin levels result with haptoglobin is “clear tendency to improvement”. The Blood fibrinogen levels result in the data set with fibrinogen is given as “most notable differences”. Further, the “Bifidobacteria count in feces” value in the data set with bifidobacteria (3 weeks of supplemented diet, prior to DSS) is recorded as “highest count”.
On to `OC[C@H]1O[C@@H](Oc2cc(O)cc(/C=C/c3ccc(O)cc3)c2)[C@H](O)[C@@H](O)[C@@H]1O` [PIC, resveratrol-3-O-glucoside, reference compound], for which the “General appearance of the mice” value in the data set with C57BL/6 mice was “OCT (D)≈BUT (C)>>RES≈DIGLUC≈PIC (B)>>control-DSS (A)”.
In the case of `Oc1ccc(/C=C/c2cc(O)cc(O)c2)cc1` [RES, trans-resveratrol, reference compound], the “General appearance of the mice” value in the data set with C57BL/6 mice is reported as “OCT (D)≈BUT (C)>>RES≈DIGLUC≈PIC (B)>>control-DSS (A); also recorded: better appearance than the control-DSS”. For the same molecule, in the data set on haptoglobin, the Blood haptoglobin levels result is “clear tendency to improvement”. The Blood fibrinogen levels result with fibrinogen is recorded as “clear tendency to improvement”. Also, the “Bifidobacteria count in feces” value in the data set with bifidobacteria (after administration of DSS) was “slightly higher counts”. In addition, the “Enterobacteria count in feces” value with enterobacteria is listed as “clear reduction”. Further, the “E. coli count in feces” value in the data set on E. coli was “clear reduction”. Moreover, the “Adhesion of pathogenic bacteria to the intestinal epithelium” value in [1] is listed as “reduced the adhesion”. The “Adhesion of pathogenic bacteria to intestinal epithelium” value in data set [2] is reported as “reduced the adhesion”. Also, in the data set with COX-2, the “Transcription of COX-2” value is listed as “inhibits the transcription of COX-2”. Further, the “Enzyme activity of COX-1” value on COX-1 was “inhibits the enzyme activity of COX-1”. The “Time of maximum resveratrol in the colon” value in data set [3] is “around 5 hours”.
